In ChEMBL document CHEMBL4052752, “Synthesis and evaluation of 1-phenyl-1H-1,2,3-triazole-4-carboxylic acid derivatives as xanthine oxidase inhibitors” (Bioorg Med Chem Lett, 2017):

molecular target: T1, Xanthine dehydrogenase/oxidase (Bos taurus, UniProt P80457); assay: Mixed-type inhibition of bovine xanthine oxidase by Lineweaver-Burk plot method; conditions: cattle
T1 sequence (P80457 whole entry): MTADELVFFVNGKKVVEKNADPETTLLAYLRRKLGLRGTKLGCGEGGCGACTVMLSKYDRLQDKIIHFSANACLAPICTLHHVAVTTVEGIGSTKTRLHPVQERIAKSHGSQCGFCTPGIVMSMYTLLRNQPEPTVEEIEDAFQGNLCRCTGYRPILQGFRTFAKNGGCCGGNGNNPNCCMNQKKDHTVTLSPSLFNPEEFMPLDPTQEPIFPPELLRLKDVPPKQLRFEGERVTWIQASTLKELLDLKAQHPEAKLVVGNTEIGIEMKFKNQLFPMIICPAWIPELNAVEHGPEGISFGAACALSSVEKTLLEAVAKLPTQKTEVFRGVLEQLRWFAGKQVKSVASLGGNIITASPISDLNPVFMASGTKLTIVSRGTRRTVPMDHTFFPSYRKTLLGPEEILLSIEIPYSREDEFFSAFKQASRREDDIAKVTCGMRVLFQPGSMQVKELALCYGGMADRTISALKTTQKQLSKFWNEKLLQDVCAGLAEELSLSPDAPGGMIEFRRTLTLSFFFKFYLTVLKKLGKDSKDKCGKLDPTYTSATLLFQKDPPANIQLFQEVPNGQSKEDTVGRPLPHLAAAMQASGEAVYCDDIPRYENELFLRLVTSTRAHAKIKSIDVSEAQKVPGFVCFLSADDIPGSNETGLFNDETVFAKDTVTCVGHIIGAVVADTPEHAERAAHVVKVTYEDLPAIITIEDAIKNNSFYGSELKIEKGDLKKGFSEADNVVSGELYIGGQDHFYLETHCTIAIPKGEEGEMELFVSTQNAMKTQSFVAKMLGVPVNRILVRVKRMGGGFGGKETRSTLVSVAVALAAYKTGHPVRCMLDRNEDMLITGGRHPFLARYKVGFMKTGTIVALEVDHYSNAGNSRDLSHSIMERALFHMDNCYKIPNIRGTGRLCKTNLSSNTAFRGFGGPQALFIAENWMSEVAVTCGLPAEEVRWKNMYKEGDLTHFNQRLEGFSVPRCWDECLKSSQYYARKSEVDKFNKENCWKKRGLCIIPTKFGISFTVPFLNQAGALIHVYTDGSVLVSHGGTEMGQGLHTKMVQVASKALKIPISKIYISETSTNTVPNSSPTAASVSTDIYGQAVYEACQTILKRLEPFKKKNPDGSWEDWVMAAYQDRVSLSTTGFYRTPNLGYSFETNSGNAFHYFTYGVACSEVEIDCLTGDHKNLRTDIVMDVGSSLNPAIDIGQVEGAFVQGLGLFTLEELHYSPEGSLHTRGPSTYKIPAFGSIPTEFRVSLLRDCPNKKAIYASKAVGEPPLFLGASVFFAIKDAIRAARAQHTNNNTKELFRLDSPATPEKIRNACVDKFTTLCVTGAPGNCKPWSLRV

| Compound | inhibition (INH) |
| --- | --- |
| COc1cccc(COc2ccc(-n3cc(C(=O)O)nn3)cc2C#N)c1 | Active |

molecular target: T1, Xanthine dehydrogenase/oxidase; assay: Potency index, ratio of allopurinol IC50 to compound IC50 for bovine xanthine oxidase; conditions: cattle

| Compound | Ratio IC50 |
| --- | --- |
| COc1cccc(COc2ccc(-n3cc(C(=O)O)nn3)cc2C#N)c1 | 36 |

molecular target: T1, Xanthine dehydrogenase/oxidase; assay: Inhibition of bovine xanthine oxidase assessed as reduction in uric acid production using xanthine as substrate preincubated for 10 mins followed by substrate addition by spectrophotometric analysis; conditions: not given

| Compound | IC50 [nM] |
| --- | --- |
| N#Cc1cc(-n2cc(C(=O)O)nn2)ccc1OC1CCCC1 | 1080 |
| N#Cc1ccc(COc2ccc(-n3cc(C(=O)O)nn3)cc2C#N)cc1 | 850 |
| N#Cc1cc(-n2cc(C(=O)O)nn2)ccc1OCc1ccc(Cl)cc1 | 940 |
| COc1ccccc1COc1ccc(-n2cc(C(=O)O)nn2)cc1C#N | 760 |
| COc1cccc(COc2ccc(-n3cc(C(=O)O)nn3)cc2C#N)c1 | 210 |
| N#Cc1cc(-n2cc(C(=O)O)nn2)ccc1OCc1ccccc1 | 2400 |
| COc1ccc(COc2ccc(-n3cc(C(=O)O)nn3)cc2C#N)cc1 | 720 |
| N#Cc1cccc(COc2ccc(-n3cc(C(=O)O)nn3)cc2C#N)c1 | 3350 |

Next, values leading:

| IC50 [nM] | Compound |
| --- | --- |
| 3270 | CC(C)COc1ccc(-n2cc(C(=O)O)nn2)cc1C#N |
| 3960 | CCC(C)Oc1ccc(-n2cc(C(=O)O)nn2)cc1C#N (stereo unspecified) |
| 2850 | CCCCCOc1ccc(-n2cc(C(=O)O)nn2)cc1C#N |
| > 30000 | CCCOc1ccc(-n2cc(C(=O)O)nn2)cc1C#N |
| 1620 | CC(C)CCOc1ccc(-n2cc(C(=O)O)nn2)cc1C#N |
| 1470 | CCCCCCCOc1ccc(-n2cc(C(=O)O)nn2)cc1C#N |
| 26100 | COCCOc1ccc(-n2cc(C(=O)O)nn2)cc1C#N |
| 5030 | CCCCOc1ccc(-n2cc(C(=O)O)nn2)cc1C#N |
| 6240 | CC(C)Oc1ccc(-n2cc(C(=O)O)nn2)cc1C#N |
| 1500 | CCCCCCOc1ccc(-n2cc(C(=O)O)nn2)cc1C#N |
| 630 | CCCCCCCCOc1ccc(-n2cc(C(=O)O)nn2)cc1C#N |
